In ChEMBL document CHEMBL3045625, “Antifeedant properties and chemotaxonomic implications of sesquiterpene lactones and syringin from Rhaponticum pulchrum” (2006):

Legend:
Type in all cases: functional
Tribolium confusum = assay: Antifeedant activity against Tribolium confusum (confused flour beetle) in compound treated wheat wafer discs assessed as antifeedant index by no-choice/two-choice assay
Trogoderma granarium = assay: Antifeedant activity against Trogoderma granarium (khapra beetle) in compound treated wheat wafer disks assessed as antifeedant index by no-choice/two-choice assay
Sitophilus granarius = assay: Antifeedant activity against Sitophilus granarius (granary weevil) in compound treated wheat wafer disks assessed as antifeedant index by no-choice/two-choice assay

Compound	Activity (Tribolium confusum)	Activity (Trogoderma granarium)	Activity (Sitophilus granarius)
COc1cc(/C=C/CO)cc(OC)c1O[C@@H]1O[C@H](CO)[C@@H](O)[C@H](O)[C@H]1O [SYRINGIN]	125.6	61.7	134.4
C=C(CO)C(=O)O[C@H]1CC(=C)[C@@H]2C[C@H](O)[C@]3(CO3)[C@@H]2[C@H]2OC(=O)C(=C)[C@@H]21 [JANERIN]	104	95	69
C=C(CO)C(=O)O[C@H]1CC(=C)[C@@H]2C[C@H](O)C(=C)[C@@H]2[C@H]2OC(=O)C(=C)[C@@H]21 [CYNAROPICRIN]	98.8	49.5	51.6
C=C(C)C(=O)O[C@H]1CC(=C)[C@@H]2C[C@H](O)C(=C)[C@@H]2[C@H]2OC(=O)C(=C)[C@@H]21 [AGUERIN B]	114.5	116.5	94.7
